Data as given in patent publication US20230088286A1, “USP7 INHIBITOR FOR USE IN THE TREATMENT OF CANCER” (ALMAC DISCOVERY LIMITED, priority 2020, published 2023).

Legend:
[1] = system: activated primary fibroblasts WI38, IMR90 and HDF; experiment: sVEGF ELISA in activated primary fibroblasts; format: cell-based, human; conditions: fibroblasts activated with anti-CD3/anti-CD28 stimulated PBMCs, FGF-2 or TGFβ
Text: FIG. 5: USP7 inhibition decreased secreted VEGF levels in activated fibroblasts. The USP7-mediated decrease in VEGF secretion observed in the co-cultures can be solely attributed to modulation of secreted VEGF in primary fibroblasts.
(FIG. 4). […] During the wound healing process or following stimulation by acute or chronic inflammatory signals, fibroblasts acquire an activated phenotype (referred to as myofibroblasts). Once activated, myofibroblasts proliferate and migrate, show contractile activity, exert physical forces to modify tissue architecture and become transcriptionally active leading to the secretion of cytokines, chemokines and extra-cellular matrix (ECM) components. In the tumour microenvironment, the majority of residual fibroblasts become activated and are known as cancer associated fibroblasts (CAF). In order to generate a myofibroblast phenotype, WI38, IMR90 and HDF were co-cultured with anti-CD3/anti-CD28 stimulated PBMCs or were stimulated by FGF-2 or TGFβ. […] The USP7 inhibitor-mediated decrease in VEGF secretion was only observed in primary fibroblasts; immortalized lung fibroblasts (WI38-VA13) were insensitive to USP7 inhibitor treatment, probably due to the destabilized p53 in the SV-40 immortalized fibroblasts (FIG. 7).
(§1) For the co-culture experiments, 5×10^4 cancer cells were seeded in transwell in 0.5 mL complete growth medium and placed on the top of 0.1×10^6 fibroblasts plated in 12-well in 1 mL low serum growth media overnight. Following day cancer cells were washed with PBS and media replaced with reduced (1%) serum growth media. 0.5×10^6 PBMC were plated on top of fibroblasts, incubated for 45 min and activated with CD3 (1 μg/ml final concentration) and CD28 (5 μg/ml final concentration). […] Monoculture experiments, 0.1×10^6 cells were seeded in 12-well in 1 mL of complete growth media (cancer cells) or low serum growth media (fibroblasts) and incubated overnight. […] Afterwards, cell culture media was collected, cell debris were removed by centrifugation the concentration of VEGF in the cell culture supernatants was measured using the human/mouse VEGF immunoassay Quantikine ELISA kit (R&D systems, Minneapolis, Minn., USA) according to the manufacturer's instructions. For the intracellular VEGF detection, total protein concentration was determined by BCA (Pierce Chemical, USA) and VEGF levels determined using the same kit described above.

[2] = system: CT-26 mouse cancer cell line; experiment: CT-26 cell viability in vitro; format: cell-based
Experimental: CT-26 syngeneic models are in vivo models to monitor the effect of compounds on the TME. […] After 72 hours cell viability was measured by CellTiter-Glo®.

HDF and HUVEC co-culture = experiment: In vitro co-culture tube formation assay; format: cell-based, human; conditions: for tube formation, pre-formed tubes: treated after tube formation; for tube length, de novo tube formation: treated prior to tube formation, 14 days
Experimental: Representative pictures taken at day 14 are shown. Tube formation was quantified by measuring tube length ([…]) and is shown.
HDF were seeded in 96-well plate (2500 cells/well). Once HDF formed a monolayer, media was removed and HUVECs (2500 cells/well) were seeded on top of HDF. […] The effect on existing vessels was assayed by allowing tubes to form prior to treatment. Cells were treated every 3-days during 14 days of incubation, followed by washing with PBS and fixation with 4% formaldehyde for 15 min at room temperature (RT). Cells were permeabilized with 1× PBS containing 0.1% Triton X-100 for 5 min at RT and blocked 30 min in 1% BSA/PBS. Afterwards, cells were incubated with CD31 antibody (Thermo Fisher, MA5-13188) […] followed by incubation with secondary Alexa fluor 488F goat-anti-mouse (Thermo Fisher, A28175) at 1/2000 dilution for 3 h at RT. Immunolabeled samples were counterstained with Hoechst 33342 nuclear dye (Thermo Fisher, 62249) at 1/1000 dilution for 15 min. Tubes were visualized with IN Cell Analyzer 2000 using a 2× objective. Tube length was measured and quantified using the AngioTool software for each imaging session (available in the public domain at https://ccrod.cancer.gov/confluence/display/ROB2/Downloads

[3] = system: primary human fibroblasts (HDF) in hypoxic chamber; experiment: sVEGF ELISA in primary fibroblasts under hypoxia; format: cell-based; conditions: 48 h
Text: FIG. 9: USP7 inhibition decreases VEGF levels in fibroblasts under hypoxia.
In response to wounding and during tumour growth, activated fibroblasts secrete synthesizers and modifiers of the ECM but also soluble angiogenic growth factors such as VEGF. Although VEGF gene expression can be controlled by multiple transcription factors, its major regulator is hypoxia-inducible factor 1 (HIF-1). HIF-1 mediates activation of VEGF transcription in response to hypoxia in solid tumours and in various malignant cell lines.
To assess its potency in a functional assay, HDF were treated with vehicle or various concentrations of USP7 inhibitor ADC-159 and incubated for 48 hours in hypoxic chamber. Cell culture supernatants were collected, and secreted VEGF was measured by ELISA.
as §1

VEGF = experiment: Circulating serum VEGF by ELISA in CT-26 tumour bearing mice; format: in vivo, mouse; conditions: day 15 post tumour grafting
[4] = system: cancer cells, fibroblasts and endothelial cells; experiment: Scratch wound cell migration assay; format: cell-based, human; conditions: any of tested cells
Experimental: Pictures of wound closure were taken every 2 hours during a 4-day assay using a time-lapse microscope. Charts are displaying the percentage of wound closure over time.
96-well ImageLock plates were coated with 0.1 mg/ml growth factor reduced Matrigel® and incubated for 1 h at 37° C. Cells were seeded a density of 10,000-40,000 cells/well in 100 μL/well and incubated overnight. Next day wounds were simultaneously created in all wells using the WoundMaker. After wounding, media was aspirated from each well and cells were washed twice with PBS. For invasion cells were overlayed with 50 μL of the Matrigel® top layer at 3mg/ml and incubated for 30 min at 37° C. […] Cell plates were placed into the IncuCyte live-cell analysis system and each well imaged using 10× objective every 2 hours for the total of 5-days. Images were analysed using IncuCyte scratch wound protocol and results presented as percentage of wound confluence.

PPB Fu (m) = format: in vitro ADME; conditions: mouse, plasma
PPB Fu (h) = format: in vitro ADME; conditions: human, plasma
2D6 = 2D6 (Homo sapiens, UniProt P10635); experiment: Cyp inhibition 2D6; format: in vitro ADME; conditions: read-out: Cyps: 2D6
Sequence of 2D6 (P10635 whole entry): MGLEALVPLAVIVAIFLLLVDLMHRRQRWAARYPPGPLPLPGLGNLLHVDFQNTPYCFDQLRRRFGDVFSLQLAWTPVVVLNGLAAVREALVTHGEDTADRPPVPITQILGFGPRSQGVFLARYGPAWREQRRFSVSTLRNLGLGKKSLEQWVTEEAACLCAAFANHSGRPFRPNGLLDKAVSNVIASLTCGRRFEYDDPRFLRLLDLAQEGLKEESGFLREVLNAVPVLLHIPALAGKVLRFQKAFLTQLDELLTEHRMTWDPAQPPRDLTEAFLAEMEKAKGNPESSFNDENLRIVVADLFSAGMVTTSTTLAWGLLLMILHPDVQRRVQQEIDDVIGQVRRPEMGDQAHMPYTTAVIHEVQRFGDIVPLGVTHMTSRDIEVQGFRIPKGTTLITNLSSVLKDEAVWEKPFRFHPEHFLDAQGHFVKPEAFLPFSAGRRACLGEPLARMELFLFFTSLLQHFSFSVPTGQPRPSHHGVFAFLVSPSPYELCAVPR

PPB Fu (r) = format: in vitro ADME; conditions: rat, plasma
LM CLhep (m) = format: in vitro ADME, mouse

Row | SMILES | sVEGF protein levels [1] | sensitivity of CT-26 cell line in vitro [2] | tube formation, pre-formed tubes (HDF and HUVEC co-culture) | tube length, de novo tube formation (HDF and HUVEC co-culture) | VEGF secretion under hypoxia [3] | circulating VEGF in mouse serum (VEGF) | migration (scratch wound healing) [4] | fraction unbound (PPB Fu (m)) | fraction unbound (PPB Fu (h)) | IC50 (2D6) [µM] | fraction unbound (PPB Fu (r)) | LM CLhep (m) (LM CLhep (m))
1 | C[C@H](CC(=O)N1CCC(O)(Cn2cnc3c(-c4ccc(CN)cc4)n(C)nc3c2=O)CC1)c1ccccc1 [AD-04, (R)-3-(4-(Aminomethyl)phenyl)-6-((4-hydroxy-1-(3-phenylbutanoyl)piperidin-4-yl)methyl)-2-methyl-2H-pyrazolo[4,3-d]pyrimidin-7(6H)-one] | dose-dependent decrease | not sensitive | significantly less pronounced | significant reduction | decreased in a dose-dependent manner | significant dose-dependent decrease | did not modulate migration |  |  |  |  | 
2 | CC1(C(=O)N2CCC(O)(Cn3cnc4c(cc(Cl)n4-c4ccc5c(c4)CCO5)c3=O)CC2)CC1 [ADC-159, 6-Chloro-7-(2,3-dihydrobenzofuran-5-yl)-3-((4-hydroxy-1-(1-methylcyclopropane-1-carbonyl)piperidin-4-yl)methyl)-3,7-dihydro-4H-pyrrolo[2,3-d]pyrimidin-4-One] |  | not sensitive | did not have significant effect | inhibitory effect | decreased VEGF levels in a dose-dependent manner |  |  | 0.1 | 0.15 | > 20 | 0.12 | 55
